Measurements: patent USRE32311E
Values after ≈ are worked out from the molar mass of the structure shown.

Experiments:
[1] = system: Streptococcus pneumoniae Park I; format: cell-based; conditions: agar dilution
Description: (§1) In Table VII activity is measured by the minimal inhibitory concentration (MIC), i.e. the lowest concentration of compound at which growth of the microorganism is inhibited by the test compound.

[2] = system: Streptococcus pyogenes C203; assay: agar-dilution MIC; format: cell-based
Description: as §1

[3] = system: Staphylococcus epidermidis EP11; assay: agar-dilution MIC; format: cell-based
Description: as §1

[4] = system: Staphylococcus aureus X1.1; assay: agar-dilution MIC; format: cell-based
[5] = system: Streptococcus pyogenes; assay: experimental bacterial infection in mice, ED50; format: in vivo; conditions: two doses
[6] = system: Streptococcus Group D 9960; assay: agar-dilution MIC; format: cell-based
[7] = system: Staphylococcus aureus; assay: experimental bacterial infection in mice, ED50; format: in vivo; conditions: two doses
[8] = system: Staphylococcus aureus V41; assay: agar-dilution MIC; format: cell-based; conditions: Staphylococcus aureus V41, penicillin-resistant strain
Description: as §1

[9] = toxicity, LD50 in mice; format: in vivo; conditions: administered intravenously
[10] = system: Staphylococcus epidermidis EP12; assay: agar-dilution MIC; format: cell-based
Description: as §1

[11] = system: Staphylococcus aureus X400; assay: agar-dilution MIC; format: cell-based; conditions: Staphylococcus aureus X400, methicillin-resistant strain
Description: as §1

[12] = system: Streptococcus Group D X66; assay: agar-dilution MIC; format: cell-based
Description: as §1

Row | SMILES | MIC [1] [µg/mL] | MIC [2] [µg/mL] | MIC [3] [µg/mL] | MIC [4] [µg/mL] | ED50 Streptococcus pyogenes Oral [5] [mg/kg × 2] | MIC [6] [µg/mL] | ED50 Staphylococcus aureus Subcutaneous [7] [mg/kg × 2] | MIC [8] [µg/mL] | LD50 in Mice [9] [mg/kg] | MIC [10] [µg/mL] | MIC [11] [µg/mL] | MIC [12] [µg/mL] | ED50 Streptococcus pyogenes Subcutaneous ([5]; subcutaneous) [mg/kg × 2]
1 | CCCCCCCCCCCC(=O)Nc1cccc(C(=O)N[C@@H](Cc2c[nH]c3ccccc23)C(=O)N[C@H](CC(N)=O)C(=O)N[C@@H](CC(=O)O)C(=O)N[C@@H]2C(=O)NCC(=O)N[C@@H](CCCN)C(=O)N[C@@H](CC(=O)O)C(=O)N[C@H](C)C(=O)N[C@@H](CC(=O)O)C(=O)NCC(=O)N[C@H](CO)C(=O)N[C@@H]([C@H](C)CC(=O)O)C(=O)N[C@@H](CC(=O)c3ccccc3N)C(=O)O[C@@H]2C)c1 [Compound 5] | 0.25 (≈ 0.141 µM) | 0.25 (≈ 0.141 µM) | 2 (≈ 1.13 µM) | 0.5 (≈ 0.283 µM) | > 200 | 1 (≈ 0.566 µM) | 1.67 | 0.5 (≈ 0.283 µM) | 277 | 1 (≈ 0.566 µM) | 1 (≈ 0.566 µM) | 4 (≈ 2.26 µM) | –
2 | CCC(C)CCCCCCC(=O)N[C@@H](Cc1c[nH]c2ccccc12)C(=O)N[C@@H](CC(N)=O)C(=O)N[C@@H](CC(=O)O)C(=O)N[C@@H]1C(=O)NCC(=O)N[C@@H](CCCNC(=O)CCC(=O)O)C(=O)N[C@@H](CC(=O)O)C(=O)N[C@H](C)C(=O)N[C@@H](CC(=O)O)C(=O)NCC(=O)N[C@H](CO)C(=O)N[C@@H]([C@H](C)CC(=O)O)C(=O)N[C@@H](CC(=O)c2ccccc2N)C(=O)O[C@@H]1C (stereo partly drawn) [Compound 15] | 0.25 (≈ 0.144 µM) | 1 (≈ 0.576 µM) | 4 (≈ 2.31 µM) | 1 (≈ 0.576 µM) | – | 4 (≈ 2.31 µM) | > 18 | 2 (≈ 1.15 µM) | 250 | 4 (≈ 2.31 µM) | 8 (≈ 4.61 µM) | 4 (≈ 2.31 µM) | 1.02
3 | CCCCCCCCCCCC(=O)N[C@@H](Cc1c[nH]c2ccccc12)C(=O)N[C@@H](Cc1c[nH]c2ccccc12)C(=O)N[C@H](CC(N)=O)C(=O)N[C@@H](CC(=O)O)C(=O)N[C@@H]1C(=O)NCC(=O)N[C@@H](CCCN)C(=O)N[C@@H](CC(=O)O)C(=O)N[C@H](C)C(=O)N[C@@H](CC(=O)O)C(=O)NCC(=O)N[C@H](CO)C(=O)N[C@@H]([C@H](C)CC(=O)O)C(=O)N[C@@H](CC(=O)c2ccccc2N)C(=O)O[C@@H]1C [Compound 24] | 1 (≈ 0.545 µM) | 2 (≈ 1.09 µM) | 4 (≈ 2.18 µM) | 1 (≈ 0.545 µM) | > 200 | 4 (≈ 2.18 µM) | 2.3 | 2 (≈ 1.09 µM) | 450 | 4 (≈ 2.18 µM) | 4 (≈ 2.18 µM) | 16 (≈ 8.72 µM) | –
